Experimental data reported in PubChem BioAssay AID2060493 (Molecular Pharmacology Branch, DTP, NCI, 2025).

Test system: 616215-338-R-J1-PDC tumor spheroids, viability
Test: Anticancer human tumor 616215-338-R-J1-PDC patient-derived colon adenocarcinoma cell line growth inhibition [GQUAD]
Conditions: spheroids with HUVEC and MSC; for IC50: curve of first compound; for viability, T/C: stronger effect = lower value
Summary of the method: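 Viability of tumor cells grown as complex spheroids with endothelial and stromal cells, exposed to drug combinations. Top concentration at or near clinical Cmax (else 10 microM), diluted in half-log increments.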

[1] = second compound 0.0316 µM, first compound 0.0316 µM
[2] = second compound 0.0316 µM, first compound 0.1 µM
[3] = second compound 0.0316 µM, first compound 0.316 µM
[4] = second compound 0.0316 µM, first compound 1 µM
[5] = second compound 0.0316 µM, first compound 3.16 µM
[6] = second compound 0.0316 µM, first compound 10 µM
[7] = second compound 0.1 µM, first compound 0.0316 µM
[8] = second compound 0.1 µM, first compound 0.1 µM
[9] = second compound 0.1 µM, first compound 0.316 µM
[10] = second compound 0.1 µM, first compound 1 µM
[11] = second compound 0.1 µM, first compound 3.16 µM
[12] = second compound 0.1 µM, first compound 10 µM
[13] = second compound 0.316 µM, first compound 0.0316 µM
[14] = second compound 0.316 µM, first compound 0.1 µM
[15] = second compound 0.316 µM, first compound 0.316 µM
[16] = second compound 0.316 µM, first compound 1 µM
[17] = second compound 0.316 µM, first compound 3.16 µM
[18] = second compound 0.316 µM, first compound 10 µM
[19] = second compound 1 µM, first compound 0.0316 µM
[20] = second compound 1 µM, first compound 0.1 µM
[21] = second compound 1 µM, first compound 0.316 µM
[22] = second compound 1 µM, first compound 1 µM
[23] = second compound 1 µM, first compound 3.16 µM
[24] = second compound 1 µM, first compound 10 µM
[25] = second compound 3.16 µM, first compound 0.0316 µM
[26] = second compound 3.16 µM, first compound 0.1 µM
[27] = second compound 3.16 µM, first compound 0.316 µM
[28] = second compound 3.16 µM, first compound 1 µM
[29] = second compound 3.16 µM, first compound 3.16 µM
[30] = second compound 3.16 µM, first compound 10 µM
[31] = second compound 10 µM, first compound 0.0316 µM
[32] = second compound 10 µM, first compound 0.1 µM
[33] = second compound 10 µM, first compound 0.316 µM
[34] = second compound 10 µM, first compound 1 µM
[35] = second compound 10 µM, first compound 3.16 µM
[36] = second compound 10 µM, first compound 10 µM
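Further: spheroids exposed to agents for 7 days before readout.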
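Wherever viability, T/C is given: percent viability relative to DMSO vehicle control wells taken as 100%.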

COc1cc(C2c3cc4c(cc3C(OC3OC5COC(C)OC5C(O)C3O)C3COC(=O)C23)OCO4)cc(OC)c1O (stereo unspecified) + Cc1[nH]c2ccc(F)cc2c1-c1nc2c3cccnc3c3ncccc3c2[nH]1
IC50 (second compound 0.0316 µM): 669 nM | IC50 (second compound 0.1 µM): 1050 nM | IC50 (second compound 0.316 µM): 889 nM | IC50 (second compound 1 µM): 584 nM | IC50 (second compound 3.16 µM): 541 nM | IC50 (second compound 10 µM): 720 nM | viability, T/C [1]: 113% | viability, T/C [2]: 97.5% | viability, T/C [3]: 64.9% | viability, T/C [4]: 41.6% | viability, T/C [5]: 32.4% | viability, T/C [6]: 25.4% | viability, T/C [7]: 105% | viability, T/C [8]: 101% | viability, T/C [9]: 67.1% | viability, T/C [10]: 54.4% | viability, T/C [11]: 36.2% | viability, T/C [12]: 28.4% | viability, T/C [13]: 84.6% | viability, T/C [14]: 104% | viability, T/C [15]: 75.7% | viability, T/C [16]: 47% | viability, T/C [17]: 31.9% | viability, T/C [18]: 22.5% | viability, T/C [19]: 95.9% | viability, T/C [20]: 97.9% | viability, T/C [21]: 65.5% | viability, T/C [22]: 37.5% | viability, T/C [23]: 41.9% | viability, T/C [24]: 25.4% | viability, T/C [25]: 86.2% | viability, T/C [26]: 96.2% | viability, T/C [27]: 63.2% | viability, T/C [28]: 36.5% | viability, T/C [29]: 40.4% | viability, T/C [30]: 27.7% | viability, T/C [31]: 93.8% | viability, T/C [32]: 87.3% | viability, T/C [33]: 67.9% | viability, T/C [34]: 40.8% | viability, T/C [35]: 34.3% | viability, T/C [36]: 23%

COc1cc(C2c3cc4c(cc3C(OC3OC5COC(C)OC5C(O)C3O)C3COC(=O)C23)OCO4)cc(OC)c1O (stereo unspecified) + CN(C)c1ccc(Nc2c3ccc(NC(=O)CCN4CCCC4)cc3nc3cc(NC(=O)CCN4CCCC4)ccc23)cc1
IC50 (second compound 0.0316 µM): 967 nM | IC50 (second compound 0.1 µM): 655 nM | IC50 (second compound 0.316 µM): 693 nM | IC50 (second compound 1 µM): 762 nM | IC50 (second compound 3.16 µM): 644 nM | IC50 (second compound 10 µM): 491 nM | viability, T/C [1]: 99.3% | viability, T/C [2]: 103% | viability, T/C [3]: 67.8% | viability, T/C [4]: 51.9% | viability, T/C [5]: 31.9% | viability, T/C [6]: 20.7% | viability, T/C [7]: 94.7% | viability, T/C [8]: 107% | viability, T/C [9]: 71.6% | viability, T/C [10]: 37.5% | viability, T/C [11]: 31% | viability, T/C [12]: 18.7% | viability, T/C [13]: 100% | viability, T/C [14]: 95.6% | viability, T/C [15]: 63.4% | viability, T/C [16]: 41% | viability, T/C [17]: 33.1% | viability, T/C [18]: 16.6% | viability, T/C [19]: 100% | viability, T/C [20]: 91.6% | viability, T/C [21]: 58.5% | viability, T/C [22]: 44.6% | viability, T/C [23]: 34.3% | viability, T/C [24]: 14.2% | viability, T/C [25]: 96.4% | viability, T/C [26]: 85% | viability, T/C [27]: 55.9% | viability, T/C [28]: 43.6% | viability, T/C [29]: 31.6% | viability, T/C [30]: 15.9% | viability, T/C [31]: 97.2% | viability, T/C [32]: 83.2% | viability, T/C [33]: 52.6% | viability, T/C [34]: 40% | viability, T/C [35]: 25.9% | viability, T/C [36]: 15%

CC1COCCN1c1cc(C2(O)CC3CCC(C2)O3)c2cnn(-c3ccn[nH]3)c2n1 (stereo unspecified) + CN(C)c1ccc(Nc2c3ccc(NC(=O)CCN4CCCC4)cc3nc3cc(NC(=O)CCN4CCCC4)ccc23)cc1
IC50 (second compound 0.0316 µM): 184 nM | IC50 (second compound 0.1 µM): 213 nM | IC50 (second compound 0.316 µM): 196 nM | IC50 (second compound 1 µM): 201 nM | IC50 (second compound 3.16 µM): 225 nM | IC50 (second compound 10 µM): 139 nM | viability, T/C [1]: 98.6% | viability, T/C [2]: 63.5% | viability, T/C [3]: 38.5% | viability, T/C [4]: 24% | viability, T/C [5]: 15.5% | viability, T/C [6]: 18.4% | viability, T/C [7]: 102% | viability, T/C [8]: 72.7% | viability, T/C [9]: 34.7% | viability, T/C [10]: 30.3% | viability, T/C [11]: 20.8% | viability, T/C [12]: 15.2% | viability, T/C [13]: 94.3% | viability, T/C [14]: 64.7% | viability, T/C [15]: 36.4% | viability, T/C [16]: 31.9% | viability, T/C [17]: 17.3% | viability, T/C [18]: 15.3% | viability, T/C [19]: 95.4% | viability, T/C [20]: 72.5% | viability, T/C [21]: 34.3% | viability, T/C [22]: 24.1% | viability, T/C [23]: 24.4% | viability, T/C [24]: 11.7% | viability, T/C [25]: 99.5% | viability, T/C [26]: 67.2% | viability, T/C [27]: 41.3% | viability, T/C [28]: 28.4% | viability, T/C [29]: 25.2% | viability, T/C [30]: 13.2% | viability, T/C [31]: 84.7% | viability, T/C [32]: 55.2% | viability, T/C [33]: 35.2% | viability, T/C [34]: 27.1% | viability, T/C [35]: 24.2% | viability, T/C [36]: 13.4%
